Experimental findings from patent publication US12534456B2, “Heterocyclyl pyridines as novel fungicides” (Bayer Aktiengesellschaft, priority 2020, dated 2026) are described below.

Each structure is given as a SMILES string. Like-named read-outs stand apart in the source and are kept apart here.

A short description of one data set: physchem. In kind it is physicochemical. The following applies: Table 1, compounds of formula (I); method [a]: LC-UV, acidic range, 0.1% formic acid in water and acetonitrile. The method, then: Measurement of Log P values as provided herein was performed according to EEC directive 79/831 Annex V.A8 by HPLC (High Performance Liquid Chromatography) on reversed phase columns with the following methods: • ^[a]
If more than one Log P value is available within the same method, all the values are given and separated by “+”.
Lambda-max-values were determined using UV-spectra from 200 nm to 400 nm and the peak values of the chromatographic signals

For a further data set, the system named is Alternaria alternata. The data set can be described thus: Alternaria alternata in vitro cell test. In kind it is cell-based. The following applies: 120 h, 20 ppm of active ingredient, liquid culture with spores, 5 days incubation, spectrometric measurement of mycelium growth, read-out: efficacy (inhibition of fungal growth). The method, then:
(§1) B-5. Alternaria alternata In Vitro Cell Test • Solvent: DMSO • Culture medium: 14.6 g anhydrous D-glucose (VWR), 7.1 g Mycological Peptone (Oxoid), 1.4 g granulated Yeast Extract (Merck), QSP 1 liter • Inoculum: spores suspension • Fungicides were solubilized in DMSO and the solution used to prepare the required range of concentrations. […] A spore suspension of A. alternata was prepared and diluted to the desired spore density. Fungicides were evaluated for their ability to inhibit spore germination and mycelium growth in liquid culture assay. The compounds were added in the desired concentration to the culture medium with spores. After 5 days incubation, fungi-toxicity of compounds was determined by spectrometric measurement of mycelium growth. Inhibition of fungal growth was determined by comparing the absorbance values in wells containing the fungicides with the absorbance in control wells without fungicides.

A further data set relates to Pyricularia oryzae. Description: microbe, parasite or virus in culture. In kind it is cell-based. Conditions: 120 h, read-out: efficacy (inhibition of fungal growth).
Data set [1] deals with Colletotrichum lindemuthianum. Description: Colletotrichum lindemuthianum in vitro cell test. In kind it is cell-based. Conditions: 144 h, 20 ppm of active ingredient, liquid culture with spores, 6 days incubation, spectrometric measurement of mycelium growth, read-out: efficacy (inhibition of fungal growth). The procedure: as §1, with “B-7. Colletotrichum lindemuthianum In” for “B-5. Alternaria alternata In”, “of C. lindemuthianum” for “of A. alternata”, “inhibit spores” for “inhibit spore”, “After 6” for “After 5”

A further data set has as its system Septoria tritici. The data set can be described thus: Septoria tritici in vitro cell test. The format is cell-based. The following applies: Zymoseptoria tritici, 168 h; 20 ppm of active ingredient; liquid culture with spores, 7 days incubation, spectrometric measurement of mycelium growth; read-out: efficacy (inhibition of fungal growth). The procedure:
B-8. Septoria tritici In Vitro Cell Test • Solvent: DMSO • Culture medium: 1 g KH2PO4 (VWR), 1 g K2HPO4 (VWR), 0.5 g Urea (VWR), 3 g KNO3 (Prolabo), 10 g saccharose (VWR), 0.5 g MgSO4, 7H2O (Sigma), 0.07 g CaCl2, 2H2O (Prolabo), 0.2 mg MnSO4, H2O (Sigma), 0.6 mg CuSO4, 5H2O (Sigma), 7.9 mg ZnSO4, 7H2O (Sigma), 0.1 mg H3BO3 (Merck), 0.14 mg NaMoO4, 2H2O (Sigma), 2 mg thiamine (Sigma), 0.1 mg biotine (VWR), 4 mg FeSO4, 7H2O (Sigma), QSP 1 liter • Inoculum: spore suspension Fungicides were solubilized in DMSO and the solution used to prepare the required range of concentrations. […] A spore suspension of S. tritici was prepared and diluted to the desired spore density. Fungicides were evaluated for their ability to inhibit spore germination and mycelium growth in liquid culture assay. The compounds were added in the desired concentration to the culture medium with spores. […] Inhibition of fungal growth was determined by comparing the absorbance values in wells containing the fungicides with the absorbance in control wells without fungicides.

A further data set has as its system Fusarium culmorum. The data set can be described thus: Fusarium culmorum in vitro cell test. The following applies: 96 h, read-out: efficacy (inhibition of fungal growth). The format is cell-based. The procedure: B-9. Fusarium culmorum In Vitro Cell Test
• Solvent: DMSO • Culture medium: 14.6 g anhydrous D-glucose (VWR), 7.1 g Mycological Peptone (Oxoid), 1.4 g granulated Yeast Extract (Merck), QSP 1 liter • Inoculum: spore suspension
Fungicides were solubilized in DMSO and the solution used to prepare the required range of concentrations. The final concentration of DMSO used in the assay was ≤1%.
A spore suspension of F. culmorum was prepared and diluted to the desired spore density.
Fungicides were evaluated for their ability to inhibit spore germination and mycelium growth in liquid culture assay. The compounds were added in the desired concentration to the culture medium with spores. After 4 days incubation, fungi-toxicity of compounds was determined by spectrometric measurement of mycelium growth. Inhibition of fungal growth was determined by comparing the absorbance values in wells containing the fungicides with the absorbance in control wells without fungicides.

The mark [2] stands for this setting: 20 ppm of active ingredient, liquid culture with spores, 4 days incubation, spectrometric measurement of mycelium growth.

The compound `FC(F)c1cccc(Oc2cnc(Cl)cc2C2=NOC[C@@H](Cc3ccc([C@H]4CCOC4)cc3Cl)N2)c1` (racemic) [Compound I-041, (5RS)-3-{2-chloro-5-[3-(difluoromethyl)phenoxy]pyridin-4-yl}-5-{2-chloro-4-[(3RS)-tetrahydrofuran-3-yl]benzyl}-5,6-dihydro-4H-1,2,4-oxadiazine] gave a chromatographic logP in “physchem” of 3.81. Further, the inhibition at 20 ppm in the data set on Alternaria alternata lay in the range of 90 to 100%; in the data set on Pyricularia oryzae, 80 to 89%; in data set [1] it was 90 to 100%; in the data set with Septoria tritici, 70 to 79%.

For the compound `COc1ccc(C2NC(c3cc(Cl)ncc3Oc3cccc(C(F)(F)F)c3)=NOC2(F)F)cc1` (racemic) [Compound I-047, (5RS)-3-{2-chloro-5-[3-(trifluoromethyl)phenoxy]pyridin-4-yl}-6,6-difluoro-5-(4-methoxyphenyl)-5,6-dihydro-4H-1,2,4-oxadiazine], the chromatographic logP in the data set “physchem” amounted to 4.14. Besides, the inhibition at 20 ppm was in the range of 90 to 100% with Alternaria alternata; 90 to 100% in the data set on Pyricularia oryzae; 90 to 100% in data set [1]; 90 to 100% with Septoria tritici; 80 to 89% in the data set on Fusarium culmorum (setting [2]).

The compound `Cc1ccc(CC2CON=C(c3cc(Cl)ncc3Oc3cccc(C(F)(F)F)c3)N2)c(C)c1` (racemic) [Compound I-001, (5RS)-3-{2-chloro-5-[3-(trifluoromethyl)phenoxy]pyridin-4-yl}-5-(2,4-dimethylbenzyl)-5,6-dihydro-4H-1,2,4-oxadiazine] showed a chromatographic logP in “physchem” of 4.56. For the same compound, the inhibition at 20 ppm (with Alternaria alternata; in the data set with Pyricularia oryzae; in data set [1]; in the data set with Fusarium culmorum) was 90 to 100% throughout.

Take `Cc1ccc(CC2CON=C(c3cc(N4CCCC4)ncc3Oc3cccc(C(F)(F)F)c3)N2)cc1` (racemic) [Compound I-056, (5RS)-5-(4-methylbenzyl)-3-{2-(pyrrolidin-1-yl)-5-[3-(trifluoromethyl)phenoxy]pyridin-4-yl}-5,6-dihydro-4H-1,2,4-oxadiazine]: in “physchem”, the chromatographic logP was 3.5. In addition, the inhibition at 20 ppm with Alternaria alternata was 90 to 100%; in the data set with Pyricularia oryzae, 80 to 89%; in data set [1], 90 to 100%.

The compound `Cc1ccc(C2CON=C(c3cc(Cl)ncc3Oc3cccc(C(F)(F)F)c3)N2)s1` (racemic) [Compound I-097, rac-(5S)-3-[2-chloro-5-[3-(trifluoromethyl)phenoxy]-4-pyridyl]-5-(5-methyl-2-thienyl)-5,6-dihydro-4H-1,2,4-oxadiazine] yielded a chromatographic logP in “physchem” of 3.87. Moreover, the inhibition at 20 ppm with Alternaria alternata was in the range of 90 to 100%; in the data set on Pyricularia oryzae, 70 to 79%; in data set [1], 90 to 100%; with Septoria tritici, 90 to 100%; in the data set on Fusarium culmorum, 90 to 100%.

Turning to `Cc1ccc(CC2CON=C(c3ccncc3Oc3cccc(C(F)(F)F)c3)N2)cc1` (racemic) [Compound I-039, (5RS)-5-(4-methylbenzyl)-3-{3-[3-(trifluoromethyl)phenoxy]pyridin-4-yl}-5,6-dihydro-4H-1,2,4-oxadiazine], the chromatographic logP in “physchem” was determined as 3.47. Besides, the inhibition at 20 ppm was 90 to 100% with Alternaria alternata, 90 to 100% in data set [1], 80 to 89% with Septoria tritici and 90 to 100% with Fusarium culmorum.

In turn, `Cc1cc(C2CC2)ccc1CC1CON=C(c2cc(Cl)ncc2Oc2cccc(C(F)(F)F)c2)N1` (racemic) [Compound I-107, rac-(5R)-3-[2-chloro-5-[3-(trifluoromethyl)phenoxy]-4-pyridyl]-5-[(4-cyclopropyl-2-methyl-phenyl)methyl]-5,6-dihydro-4H-1,2,4-oxadiazine] registered a chromatographic logP in the data set “physchem” of 4.88. Besides, the inhibition at 20 ppm in the data set with Alternaria alternata is 80 to 89%; with Pyricularia oryzae it was 90 to 100%; in data set [1], 90 to 100%; in the data set on Septoria tritici it was 90 to 100%.

The compound `Cc1cc(C2=NOCC(Cc3ccc(Cl)cc3Cl)N2)c(Oc2cccc(C3CC3)c2F)cn1` (racemic) [Compound I-029, (5RS)-3-[5-(3-cyclopropyl-2-fluorophenoxy)-2-methylpyridin-4-yl]-5-(2,4-dichlorobenzyl)-5,6-dihydro-4H-1,2,4-oxadiazine] had a chromatographic logP in the data set “physchem” of 4.23. For the same compound, the inhibition at 20 ppm (in the data set on Alternaria alternata; in the data set with Pyricularia oryzae; in data set [1]; with Septoria tritici; in the data set on Fusarium culmorum) was 90 to 100% in each case.

`Cc1ccc(CC2CC(=O)N=C(c3cc(Cl)ncc3Oc3cccc(C(F)(F)F)c3)N2)c(C)c1` (racemic) [Compound I-098, rac-(6R)-2-[2-chloro-5-[3-(trifluoromethyl)phenoxy]-4-pyridyl]-6-[(2,4-dimethylphenyl)methyl]-5,6-dihydro-1H-pyrimidin-4-one] displayed a chromatographic logP in the data set “physchem” of 4.62. Besides, the figures for the inhibition at 20 ppm (with Alternaria alternata; in data set [1]) were 80 to 89% and 90 to 100%, respectively.

`Cc1ccc(CC2CON=C(c3cc(C(F)(F)F)ncc3Oc3cccc(C(F)(F)F)c3)N2)c(C)c1` (racemic) [Compound I-034, (5RS)-5-(2,4-dimethylbenzyl)-3-{2-(trifluoromethyl)-5-[3-(trifluoromethyl)phenoxy]pyridin-4-yl}-5,6-dihydro-4H-1,2,4-oxadiazine] came in with a chromatographic logP in “physchem” of 4.89. For the same compound, the inhibition at 20 ppm in the data set with Alternaria alternata lay within 90 to 100%; in the data set on Pyricularia oryzae it was 90 to 100%; in data set [1], 90 to 100%; in the data set on Septoria tritici, 90 to 100%; with Fusarium culmorum (setting [2]), 70 to 79%.

In the data set “physchem”, `Cc1ccc(CC2CCN=C(c3cc(Cl)ncc3Oc3cccc(C(F)(F)F)c3)N2)c(C)c1` (racemic) [Compound I-088, rac-(6R)-2-[2-chloro-5-[3-(trifluoromethyl)phenoxy]-4-pyridyl]-6-[(2,4-dimethylphenyl)methyl]-1,4,5,6-tetrahydropyrimidine] returned a chromatographic logP of 2.62. Besides, the values for the inhibition at 20 ppm (with Alternaria alternata; in data set [1]) were 80 to 89% and 70 to 79%, respectively.

The compound `Cc1ccc(C[C@@H]2CON=C(c3cc([C@@H]4CCOC4)ncc3Oc3cccc(C(F)(F)F)c3)N2)cc1` (racemic) [Compound I-058, (5RS)-5-(4-methylbenzyl)-3-{2-[(3SR)-tetrahydrofuran-3-yl]-5-[3-(trifluoromethyl)phenoxy]pyridin-4-yl}-5,6-dihydro-4H-1,2,4-oxadiazine] yielded a chromatographic logP in “physchem” of 3.78. Also, the inhibition at 20 ppm (in the data set on Alternaria alternata; in the data set on Pyricularia oryzae; in data set [1]; in the data set with Septoria tritici; in the data set with Fusarium culmorum) was 90 to 100% each time.

The chromatographic logP is a lipophilicity value derived from retention on a column. A higher chromatographic logP goes with a more lipophilic compound. For orientation: inhibition means the change of the read-out against control, counted positive when it falls.
